This note sets out measurements from PMC11292843 (ACS Omega, 2024).

Experiment [1] addresses T1, hPTP1B1–400 (Homo sapiens, UniProt P18031).
T1 sequence (P18031 1-400): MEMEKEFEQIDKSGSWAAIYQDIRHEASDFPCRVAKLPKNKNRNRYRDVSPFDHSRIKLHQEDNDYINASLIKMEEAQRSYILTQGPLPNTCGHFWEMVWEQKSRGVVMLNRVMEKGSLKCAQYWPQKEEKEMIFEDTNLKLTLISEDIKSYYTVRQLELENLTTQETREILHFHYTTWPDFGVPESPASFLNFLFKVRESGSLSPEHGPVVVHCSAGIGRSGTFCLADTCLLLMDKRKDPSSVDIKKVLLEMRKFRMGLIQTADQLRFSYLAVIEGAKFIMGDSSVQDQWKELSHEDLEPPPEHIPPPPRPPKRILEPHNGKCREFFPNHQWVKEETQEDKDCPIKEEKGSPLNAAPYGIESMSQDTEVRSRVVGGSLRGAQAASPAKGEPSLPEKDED
Description: PTP1B inhibition assay (pNPP, spectrocolorimetric), long form. The note with it: IC50 ± SD hPTP1B1–400, hPTP1B 66 nM, pNPP 0.5 mM, 37 °C, 15 min.

Experiment [2] addresses T1, hPTP1B1–400. Description: Enzyme kinetics (Lineweaver–Burk, varying pNPP). The settings on record: for inhibition mechanism: hPTP1B1–400, best fit of inhibition models; for Km / Vmax: hPTP1B1–400, pNPP 0.1–0.5 mM.
The target in the next experiment is T2, hPTP1B1–285 (Homo sapiens, UniProt P18031).
T2 sequence (P18031 1-285): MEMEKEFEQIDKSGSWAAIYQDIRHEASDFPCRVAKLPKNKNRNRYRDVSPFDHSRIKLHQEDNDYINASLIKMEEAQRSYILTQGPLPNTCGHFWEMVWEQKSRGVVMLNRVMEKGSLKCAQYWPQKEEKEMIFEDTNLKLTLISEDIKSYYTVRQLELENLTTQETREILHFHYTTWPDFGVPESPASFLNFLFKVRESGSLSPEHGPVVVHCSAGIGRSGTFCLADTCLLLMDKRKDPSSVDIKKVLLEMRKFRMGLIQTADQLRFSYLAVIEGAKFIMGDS
Description: PTP1B inhibition assay (pNPP, spectrocolorimetric), short form.

Structures are written as SMILES.

Turning to `C[C@H](CCC(=O)O)C1CCC2C3CC[C@@H]4C[C@](O)(CNCc5ccccc5)CC[C@]4(C)C3CC[C@@]21C` (stereo partly drawn) [compound 6a, N-Benzyl-1-((3S,5R,10S,13R)-17-((R)-4-carboxybutan-2-yl)-3-hydroxy-10,13-dimethylhexadecahydro-1H-cyclopenta[a]phenanthren-3-yl)methanaminium Chloride], the IC50 (in general, the concentration that gives 50% inhibition) at hPTP1B1–400 [1] was 33.1 ± 2.7 µM.
Same read-out and setting: next, `C[C@H](CCC(=O)O)C1CCC2C3CC[C@@H]4C[C@](O)(CNCc5ccc(O)cc5)CC[C@]4(C)C3CC[C@@]21C` (stereo partly drawn) [compound 6b, 1-((3S,5R,10S,13R)-17-((R)-4-carboxybutan-2-yl)-3-hydroxy-10,13-dimethylhexadecahydro-1H-cyclopenta[a]phenanthren-3-yl)-N-(4-hydroxybenzyl)methanaminium Chloride]: 26.9 ± 3.5 µM.
Regarding `COc1cccc(CNC[C@]2(O)CC[C@]3(C)C4CC[C@@]5(C)C(CCC5[C@H](C)CCC(=O)O)C4CC[C@@H]3C2)c1.Cl` (stereo partly drawn) [compound 6c, 1-((3S,5R,10S,13R)-17-((R)-4-carboxybutan-2-yl)-3-hydroxy-10,13-dimethylhexadecahydro-1H-cyclopenta[a]phenanthren-3-yl)-N-(3-methoxybenzyl)methanaminium Chloride], on hPTP1B1–400 [2], the Ki (as a rule, the equilibrium dissociation constant of an inhibitor or competing ligand from its target) was 4 ± 0.2 µM; the inhibition mechanism result is given as “Uncompetitive”; the Km (in general, the substrate concentration at which the rate is half of its maximum) came out at 380 ± 20 µM; the maximum rate (Vmax) (in general, the rate approached at saturating substrate) is 0.64 ± 0.02 mM/min. This compound also came in with an IC50 on hPTP1B1–400 [1] of 10.5 ± 0.2 µM.
Take `COc1ccc(CNC[C@]2(O)CC[C@]3(C)C4CC[C@@]5(C)C(CCC5[C@H](C)CCC(=O)O)C4CC[C@@H]3C2)cc1.Cl` (stereo partly drawn) [compound 6d, 1-((3S,5R,10S,13R)-17-((R)-4-carboxybutan-2-yl)-3-hydroxy-10,13-dimethylhexadecahydro-1H-cyclopenta[a]phenanthren-3-yl)-N-(4-methoxybenzyl)methanaminium Chloride]: at hPTP1B1–400 [2], the affinity corresponds to a Ki of 19.7 ± 2.6 µM, the inhibition mechanism entry was “Uncompetitive”, the Km turned out to be 780 ± 90 µM and the Vmax worked out at 1.10 ± 0.09 mM/min. Moreover, on hPTP1B1–400 [1], the IC50 was 26.6 ± 0.9 µM.
On to `Cc1cccc(CNC[C@]2(O)CC[C@]3(C)C4CC[C@@]5(C)C(CCC5[C@H](C)CCC(=O)O)C4CC[C@@H]3C2)c1` (stereo partly drawn) [compound 6e, 1-((3S,5R,10S,13R)-17-((R)-4-carboxybutan-2-yl)-3-hydroxy-10,13-dimethylhexadecahydro-1H-cyclopenta[a]phenanthren-3-yl)-N-(3-methylbenzyl)methanaminium Chloride], for which the IC50 against hPTP1B1–285 stood at 53.8 ± 2.7 µM; against hPTP1B1–400 [1], 16.3 ± 0.5 µM.
For `Cc1ccc(CNC[C@]2(O)CC[C@]3(C)C4CC[C@@]5(C)C(CCC5[C@H](C)CCC(=O)O)C4CC[C@@H]3C2)cc1` (stereo partly drawn) [compound 6f, 1-((3S,5R,10S,13R)-17-((R)-4-carboxybutan-2-yl)-3-hydroxy-10,13-dimethylhexadecahydro-1H-cyclopenta[a]phenanthren-3-yl)-N-(4-methylbenzyl)methanaminium Chloride] the same measures were 46 ± 1.7 µM and 34.3 ± 0.5 µM.
Compound `C[C@H](CCC(=O)O)C1CCC2C3CC[C@@H]4C[C@](O)(CNCc5cccc(F)c5)CC[C@]4(C)C3CC[C@@]21C` (stereo partly drawn) [compound 6g, 1-((3S,5R,10S,13R)-17-((R)-4-carboxybutan-2-yl)-3-hydroxy-10,13-dimethylhexadecahydro-1H-cyclopenta[a]phenanthren-3-yl)-N-(3-fluorobenzyl)methanaminium Chloride] displayed an IC50 against hPTP1B1–400 [1] greater than 100 µM.
In turn, `C[C@H](CCC(=O)O)C1CCC2C3CC[C@@H]4C[C@](O)(CNCc5ccc(F)cc5)CC[C@]4(C)C3CC[C@@]21C` (stereo partly drawn) [compound 6h, 1-((3S,5R,10S,13R)-17-((R)-4-carboxybutan-2-yl)-3-hydroxy-10,13-dimethylhexadecahydro-1H-cyclopenta[a]phenanthren-3-yl)-N-(4-fluorobenzyl)methanaminium Chloride] registered a half-maximal inhibitory concentration (IC50) at hPTP1B1–400 [1] greater than 100 µM.
At hPTP1B1–400 [1], `C[C@H](CCC(=O)O)C1CCC2C3CC[C@@H]4C[C@](O)(CNCc5cccc(Cl)c5)CC[C@]4(C)C3CC[C@@]21C` (stereo partly drawn) [compound 6i, 1-((3S,5R,10S,13R)-17-((R)-4-carboxybutan-2-yl)-3-hydroxy-10,13-dimethylhexadecahydro-1H-cyclopenta[a]phenanthren-3-yl)-N-(3-chlorobenzyl)methanaminium Chloride] displayed an IC50 greater than 100 µM.
`C[C@H](CCC(=O)O)C1CCC2C3CC[C@@H]4C[C@](O)(CNCc5ccc(Cl)cc5)CC[C@]4(C)C3CC[C@@]21C` (stereo partly drawn) [compound 6j, 1-((3S,5R,10S,13R)-17-((R)-4-carboxybutan-2-yl)-3-hydroxy-10,13-dimethylhexadecahydro-1H-cyclopenta[a]phenanthren-3-yl)-N-(4-chlorobenzyl)methanaminium Chloride] had an IC50 against hPTP1B1–400 [1] greater than 100 µM.
With `C[C@H](CCC(=O)O)C1CCC2C3CC[C@@H]4C[C@](O)(CNCc5cccc(C(=O)O)c5)CC[C@]4(C)C3CC[C@@]21C.Cl` (stereo partly drawn) [compound 6k, N-(3-carboxybenzyl)-1-((3S,5R,10S,13R)-17-((R)-4-carboxybutan-2-yl)-3-hydroxy-10,13-dimethylhexadecahydro-1H-cyclopenta[a]phenanthren-3-Yl)methanaminium Chloride], on hPTP1B1–400 [2], the affinity corresponds to a Ki of 11 ± 1 µM, the inhibition mechanism entry is given as “Uncompetitive”, the Km was 480 ± 60 µM and the Vmax is 0.80 ± 0.06 mM/min. Moreover, the IC50 on hPTP1B1–400 [1] came out at 32.3 ± 1.2 µM.
As to `C[C@H](CCC(=O)O)C1CCC2C3CC[C@@H]4C[C@](O)(CNCc5ccc(C(=O)O)cc5)CC[C@]4(C)C3CC[C@@]21C.Cl` (stereo partly drawn) [compound 6l, N-(4-carboxybenzyl)-1-((3S,5R,10S,13R)-17-((R)-4-carboxybutan-2-yl)-3-hydroxy-10,13-dimethylhexadecahydro-1H-cyclopenta[a]phenanthren-3-yl)methanaminium Chloride], at hPTP1B1–400 [2], the Ki came to 10.7 ± 1.6 µM, the inhibition mechanism entry is “Uncompetitive”, the Km was 950 ± 150 µM and the Vmax was found to be 1.41 ± 0.17 mM/min. This compound also displayed an IC50 at hPTP1B1–400 [1] of 12.6 ± 0.7 µM.
